Data set [1] addresses Vascular endothelial growth factor receptor 2 (Homo sapiens, UniProt P35968). The experiment in a line: Inhibition of VEGFR2 (unknown origin) by caliper mobility shift assay.
The subject of the next data set is HGC-27. The data set is described as follows: Antiproliferative activity against human HGC-27 cells assessed as inhibition of cell growth incubated for 72 hrs by MTT assay. In kind it is functional, cell-based. The following applies: HGC-27, 72 h. A general note: Formazan colour is commonly taken as a measure of viable cells.
A short description of data set [2]: Cytotoxicity against HEK293T cells assessed as inhibition of cell growth incubated for 72 hrs by MTT assay. The data set is classed as toxicity, cell-based, HEK-293T. To be noted: human.
Data set [3] in a line: Cytotoxicity against HUVEC cells assessed as inhibition of cell growth incubated for 72 hrs by MTT assay. The data set is classed as toxicity, cell-based. To be noted: human.
Data set [4] is described as follows: Cytotoxicity against human GES1 cells assessed as inhibition of cell growth incubated for 72 hrs by MTT assay. The data set is classed as toxicity, cell-based.
In data set [5] the target is T1, von Hippel-Lindau disease tumor suppressor/Vascular endothelial growth factor receptor 2 (Homo sapiens, UniProt P35968+P40337). The data set is described as follows: PROTAC activity at VHL/VEGFR2 in human HGC-27 cells assessed as induction of VEGRF2 protein degradation at 100 nM incubated for 2 hrs by Western blot analysis. The data set is classed as cell-based. (In western blotting, separated proteins are transferred to a membrane and probed.)
Target sequence in this assay (P35968 20-1356 limits assumed): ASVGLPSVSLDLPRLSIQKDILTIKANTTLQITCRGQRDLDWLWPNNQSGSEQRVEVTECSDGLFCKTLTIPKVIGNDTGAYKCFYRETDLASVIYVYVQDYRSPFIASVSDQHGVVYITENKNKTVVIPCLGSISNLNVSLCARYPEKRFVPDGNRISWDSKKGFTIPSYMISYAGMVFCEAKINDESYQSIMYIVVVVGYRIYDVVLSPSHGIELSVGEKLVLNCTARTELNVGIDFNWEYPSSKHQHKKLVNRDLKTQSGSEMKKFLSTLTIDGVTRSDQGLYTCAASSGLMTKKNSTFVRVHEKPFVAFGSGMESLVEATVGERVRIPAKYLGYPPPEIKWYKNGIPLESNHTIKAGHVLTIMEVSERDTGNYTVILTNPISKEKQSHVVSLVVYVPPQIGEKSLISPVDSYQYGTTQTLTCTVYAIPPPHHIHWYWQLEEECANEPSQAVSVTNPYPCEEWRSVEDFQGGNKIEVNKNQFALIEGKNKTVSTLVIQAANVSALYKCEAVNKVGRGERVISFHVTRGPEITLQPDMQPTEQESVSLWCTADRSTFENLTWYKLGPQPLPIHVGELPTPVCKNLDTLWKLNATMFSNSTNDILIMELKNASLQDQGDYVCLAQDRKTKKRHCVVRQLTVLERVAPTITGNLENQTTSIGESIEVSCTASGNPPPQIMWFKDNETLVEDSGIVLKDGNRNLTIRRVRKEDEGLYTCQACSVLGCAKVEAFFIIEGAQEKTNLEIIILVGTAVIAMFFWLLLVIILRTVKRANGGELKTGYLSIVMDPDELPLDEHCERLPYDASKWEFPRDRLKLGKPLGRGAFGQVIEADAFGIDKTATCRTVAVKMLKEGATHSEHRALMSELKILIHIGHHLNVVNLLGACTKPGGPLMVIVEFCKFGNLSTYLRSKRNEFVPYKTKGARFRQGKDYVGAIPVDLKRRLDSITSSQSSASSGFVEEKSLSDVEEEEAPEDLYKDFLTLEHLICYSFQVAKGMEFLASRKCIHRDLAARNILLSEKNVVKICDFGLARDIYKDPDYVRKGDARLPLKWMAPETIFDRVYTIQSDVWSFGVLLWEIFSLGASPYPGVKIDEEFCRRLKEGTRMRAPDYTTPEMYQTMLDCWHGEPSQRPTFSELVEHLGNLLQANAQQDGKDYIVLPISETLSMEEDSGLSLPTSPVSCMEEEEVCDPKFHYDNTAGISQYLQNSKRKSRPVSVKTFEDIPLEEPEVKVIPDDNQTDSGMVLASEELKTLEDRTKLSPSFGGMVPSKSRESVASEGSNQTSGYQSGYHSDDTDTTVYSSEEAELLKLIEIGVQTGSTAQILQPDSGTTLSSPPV
Target sequence in this assay (P40337 whole entry partner): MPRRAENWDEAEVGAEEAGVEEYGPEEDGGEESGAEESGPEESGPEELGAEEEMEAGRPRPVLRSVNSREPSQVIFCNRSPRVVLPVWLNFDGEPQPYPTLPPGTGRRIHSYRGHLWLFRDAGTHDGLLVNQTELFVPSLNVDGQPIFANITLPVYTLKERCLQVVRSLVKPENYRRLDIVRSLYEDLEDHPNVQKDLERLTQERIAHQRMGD

The target of data set [6] is T1, von Hippel-Lindau disease tumor suppressor/Vascular endothelial growth factor receptor 2. The data set is described as follows: PROTAC activity at VHL/VEGFR2 in human HGC-27 cells assessed as induction of VEGRF2 protein degradation at 10 uM incubated for 2 hrs by Western blot analysis. The data set is classed as cell-based.
Target sequence in this assay (P35968 20-1356 limits assumed): as the sequence (P35968 20-1356 limits assumed) above
Target sequence in this assay (P40337 whole entry partner): as the sequence (P40337 whole entry partner) above
The target is the same in data set [7]. The experiment in a line: PROTAC activity at VHL/VEGFR2 in human HGC-27 cells assessed as reduction in VEGFR2 protein level incubated for 24 hrs by Western blot analysis. The data set is classed as cell-based.
Target sequence in this assay (P35968 whole entry): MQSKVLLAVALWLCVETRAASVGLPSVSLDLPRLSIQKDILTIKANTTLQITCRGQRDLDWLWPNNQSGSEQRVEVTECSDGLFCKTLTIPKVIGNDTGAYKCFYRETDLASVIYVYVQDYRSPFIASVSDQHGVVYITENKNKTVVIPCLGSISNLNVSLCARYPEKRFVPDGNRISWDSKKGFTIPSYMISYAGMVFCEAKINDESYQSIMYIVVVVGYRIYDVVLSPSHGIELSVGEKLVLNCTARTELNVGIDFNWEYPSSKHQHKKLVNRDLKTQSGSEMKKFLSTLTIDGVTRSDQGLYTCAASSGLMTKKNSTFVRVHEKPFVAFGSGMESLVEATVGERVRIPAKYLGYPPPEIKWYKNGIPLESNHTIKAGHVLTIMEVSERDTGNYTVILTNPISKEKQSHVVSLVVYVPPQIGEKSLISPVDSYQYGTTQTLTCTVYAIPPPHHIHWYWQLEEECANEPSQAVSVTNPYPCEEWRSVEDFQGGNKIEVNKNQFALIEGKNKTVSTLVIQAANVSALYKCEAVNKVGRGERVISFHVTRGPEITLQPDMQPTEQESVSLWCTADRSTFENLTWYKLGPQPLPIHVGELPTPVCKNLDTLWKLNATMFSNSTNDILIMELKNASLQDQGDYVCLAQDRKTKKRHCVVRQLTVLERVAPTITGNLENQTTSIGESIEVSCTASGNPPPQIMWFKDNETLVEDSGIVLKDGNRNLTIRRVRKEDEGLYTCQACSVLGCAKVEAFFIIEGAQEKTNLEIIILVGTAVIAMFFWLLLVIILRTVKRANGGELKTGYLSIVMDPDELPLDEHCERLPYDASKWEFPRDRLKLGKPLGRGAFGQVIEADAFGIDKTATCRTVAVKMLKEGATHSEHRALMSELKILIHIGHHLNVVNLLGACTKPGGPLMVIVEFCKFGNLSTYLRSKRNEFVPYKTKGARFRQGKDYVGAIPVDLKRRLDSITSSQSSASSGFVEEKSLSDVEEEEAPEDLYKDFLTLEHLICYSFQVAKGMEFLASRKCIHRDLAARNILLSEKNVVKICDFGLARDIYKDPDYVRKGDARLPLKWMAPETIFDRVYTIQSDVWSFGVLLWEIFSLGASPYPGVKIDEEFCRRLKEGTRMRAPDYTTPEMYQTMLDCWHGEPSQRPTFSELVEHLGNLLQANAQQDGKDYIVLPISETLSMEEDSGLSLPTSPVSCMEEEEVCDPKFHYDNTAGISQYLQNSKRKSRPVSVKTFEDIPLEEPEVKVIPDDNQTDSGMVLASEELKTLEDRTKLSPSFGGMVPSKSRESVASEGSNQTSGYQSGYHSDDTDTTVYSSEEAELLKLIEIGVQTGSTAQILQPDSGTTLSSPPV
Target sequence in this assay (P40337 whole entry): as the sequence (P40337 whole entry partner) above
The target is the same in data set [8]. The data set is described as follows: PROTAC activity at VHL/VEGFR2 in human HGC-27 cells assessed as reduction in VEGFR2 protein level by measuring maximal efficacy at 3.33 uM incubated for 24 hrs by Western blot analysis relative to control. The data set is classed as cell-based.
Target sequence in this assay (P35968 20-1356 limits assumed): as the sequence (P35968 20-1356 limits assumed) above
Target sequence in this assay (P40337 whole entry partner): as the sequence (P40337 whole entry partner) above
Data set [9] shares this target. The data set is described as follows: PROTAC activity at VHL/VEGFR2 in human HGC-27 cells assessed as induction of VEGRF2 protein degradation at 1 uM incubated for 2 hrs by Western blot analysis. In kind it is cell-based.
Target sequence in this assay (P35968 20-1356 limits assumed): as the sequence (P35968 20-1356 limits assumed) above
Target sequence in this assay (P40337 whole entry partner): as the sequence (P40337 whole entry partner) above

The structures appear in SMILES notation. pEC50, pIC50: −log10 of the molar value. Active and inactive are the calls of the source. The rule behind the calls is not given here. Residues, ends and D or L forms follow the SMILES beside them. *: point of attachment. Cbz = O=C(OCc1ccccc1)*

Vascular endothelial growth factor receptor 2, sequence (P35968 whole entry): as the sequence (P35968 whole entry) above

In the case of `Cc1ccc(NC(=O)Cn2cc(-c3ccc4c(NC(=O)c5ccc(N)cc5)n[nH]c4c3)cn2)cc1C(F)(F)F`, the pIC50 in [1] is 8.57; in the data set on HGC-27, 5.67. In addition, the IC50 at 72 h was determined as 0.025 µM in data set [2], 0.11 µM in data set [3] and 2.35 µM in data set [4]. In data set [5], the outcome was inactive.
With `CC(=O)N[C@H](C(=O)N1C[C@H](O)C[C@H]1C(=O)NCc1ccc(-c2scnc2C)cc1)C(C)(C)C`, in data set [6], the outcome was inactive.
With `Cc1ccc(NC(=O)Cn2cc(-c3ccc4c(NC(=O)c5ccc(N6CCNCC6)cc5)n[nH]c4c3)cn2)cc1C(F)(F)F`, the values for the negative-log IC50 (pIC50) (in [1]; in the data set with HGC-27) were 9.38 and 5.60, respectively. Moreover, the half-maximal inhibitory concentration (IC50) at 72 h stood at 3.57 µM in data set [2], 1.7 µM in data set [3] and 1.32 µM in [4].
In the case of `Cc1ccc(NC(=O)Cn2cc(-c3ccc4c(NC(=O)c5ccc(NC(=O)CCCCCCCCCCC(=O)N[C@H](C(=O)N6C[C@H](O)C[C@H]6C(=O)NCc6ccc(-c7scnc7C)cc6)C(C)(C)C)cc5)n[nH]c4c3)cn2)cc1C(F)(F)F`, the negative-log IC50 (pIC50) in the data set on HGC-27 is 5.29. The IC50 at 72 h in [2] was 9.45 µM; in data set [3], 17.6 µM; in data set [4], 31.8 µM. Moreover, the pEC50 in [7] was 6.05. Besides, in data set [8], the Emax came out at 42.9%.
Turning to `Cc1ccc(NC(=O)Cn2cc(-c3ccc4c(NC(=O)c5ccc(NC(=O)CCCCCCC(=O)N[C@H](C(=O)N6C[C@H](O)C[C@H]6C(=O)NCc6ccc(-c7scnc7C)cc6)C(C)(C)C)cc5)n[nH]c4c3)cn2)cc1C(F)(F)F`, in the data set on HGC-27, the pIC50 was 5.36. For the same compound, the IC50 at 72 h stood at 17.9 µM in [2], 4.13 µM in data set [3] and 14.3 µM in data set [4]. Also, the pEC50 in data set [7] was 6.55. The Emax in data set [8] is 48%.
On to `Cc1ccc(NC(=O)Cn2cc(-c3ccc4c(NC(=O)c5ccc(NC(=O)CCCCC(=O)N[C@H](C(=O)N6C[C@H](O)C[C@H]6C(=O)NCc6ccc(-c7scnc7C)cc6)C(C)(C)C)cc5)n[nH]c4c3)cn2)cc1C(F)(F)F`, for which the pIC50 with HGC-27 is 5.00. Moreover, the IC50 at 72 h turned out to be 46.8 µM in data set [2], 13 µM in data set [3] and 46.4 µM in data set [4]. The pEC50 in data set [7] is 6.48. The Emax in data set [8] is 62.6%.
On to `CC(C)C[C@@H](C=O)NC(=O)[C@H](CC(C)C)NC(=O)[C@H](CC(C)C)NC(=O)OCc1ccccc1` (Cbz-Leu-Leu-Leu-aldehyde), for which the outcome in data set [6] was inactive.
On to `NS(=O)(=O)OC[C@@H]1C[C@@H](n2ccc3c(N[C@H]4CCc5ccccc54)ncnc32)C[C@@H]1O`, for which the outcome in data set [9] was inactive.

One may read the pIC50 as the negative decadic logarithm of the IC50, by convention in mol/L. As a reminder, the IC50 is the concentration at which inhibition is half-maximal. Usually pEC50 stands for −log10 of the EC50, conventionally taken in molar units.

Source of the values: ChEMBL document CHEMBL5247592, “Discovery of novel VEGFR-2-PROTAC degraders based on the localization of lysine residues via recruiting VHL for the treatment of gastric cancer” (Eur J Med Chem, 2022).
